US7166310B2, “Stable extract from Hypericum perforatum L., method for the production thereof and its use as a topical medicament” (Dr. Willmar Schwabe GmbH & Co., priority 2000, dated 2007)
Converted amounts (≈) assume the structure as drawn. Like-named read-outs stand apart in the source and are kept apart here.

Legend:
[1] = tested on: human keratinocytes (HaCaT cells); experiment: Proliferation of human keratinocytes, 3H methyl-thymidine incorporation; format: cell-based; conditions: for inhibition at 10 µg/mL: Homo sapiens, HaCaT, read-out: Inhibition (proliferation of HaCaT cells)
Protocol: The effects of the extracts according to the invention and various ingredients on the proliferation of human keratinocytes were obtained by using the HaCaT cell-line. The cells (10,000–15,000) were disseminated in 200 μl DMEM with 5% foetal calf serum in 96-well F-form micro-titre dishes and incubated at 37° C. at absence of test substances in an incubator. Cell proliferation was determined by measuring the incorporation of ^3H methyl-thymidine (0.5 μCi/well) over the last 6 hours in the culture.

[2] = tested on: myelo-peroxidase (MPO), neutrophile granulocyte accumulation; experiment: Oleum Crotonis-ear-oedema model, myelo-peroxidase in ear homogenates; format: in vivo; conditions: 250 μg topically on the ear, mice, 6 hours
Protocol: (§1) The anti-phlogistic effects of hypericum extract according to the invention, also those of isolated ingredients, were tested in the Oleum Crotonis-ear-oedema model on male NRMI mice. After inducing a narcosis by the intra-peritonal injection of 60 mg/kg sodium-pento-barbital, the test substances were applied to the right ear in 10 μl acetone, whereas the left ear was treated with 10 μl acetone alone, as a control. 30 mins later, a local inflammation was triggered at the left ear by applying 50 μg Oleum Crotonis in 10 μl acetone. After 6 hours, the animals were sacrificed and inhibition of the inflammation reaction was quantified by weighing a sample of tissue drawn from both ears, using the following formula: [1−(GT/GL]×100; in the case of GT or GL, this deals with the difference in weight between the right and left ears of animals that have been treated with the test substance (GT), or only with the solvent (GL).
Inhibition of neutrophile granulocyte accumulations in inflamed tissue was obtained by determining myelo-peroxidase (MPO) in the ear homogenates. To this end, biopsy samples were recorded in 1 ml hexadecyl-trimethyl ammonium bromide (HTAB) buffers, homogenised with a glass homogeniser at 4° C. and then given ultrasound treatment for 10 seconds in a sonicator. After centrifuging at 4° C. with 3000 g for 10 mins, the supernatant was removed and retained for analysing at −70° C. Determining the MPO was performed in micro-titre dishes after adding H2O2 and the O-dianisidine-dihydrochloride indicator as a kinetic measure, over a period of 5 mins at 450 nm. Assessment was carried out against a standard curve with horseradish peroxidase, and was obtained as an mU enzyme activity per mg of tissue.
(§2) The results of the investigations after applying 250 μg of the test substance or 1000 μg of the extract according to the invention to the left ear in each case are summarised in the following table.

[3] = target: T1, 5α reductase (Homo sapiens, UniProt P18405); experiment: Inhibition of 5α reductase in DU145 cells; format: cell-based
T1 construct: carried out on cells of the human prostate-cancer cell-line DU145; endogenous in cells; host or cells: DU145 (human prostate cancer cell line)
T1 sequence (P18405 1-259): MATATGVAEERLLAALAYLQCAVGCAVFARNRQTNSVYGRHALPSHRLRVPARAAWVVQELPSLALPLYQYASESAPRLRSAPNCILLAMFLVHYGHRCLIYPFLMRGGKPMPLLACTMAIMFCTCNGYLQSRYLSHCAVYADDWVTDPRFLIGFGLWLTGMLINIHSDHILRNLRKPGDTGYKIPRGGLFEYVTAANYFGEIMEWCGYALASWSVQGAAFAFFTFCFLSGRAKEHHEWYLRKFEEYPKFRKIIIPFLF

[4] = tested on: Oleum Crotonis-ear-oedema; experiment: Oleum Crotonis-ear-oedema model, ear weight; format: in vivo; conditions: 250 μg topically on the ear, mice, 6 hours
Protocol: as §1, §2

[5] = tested on: DU145 cells; conditions: some 30 μg/ml
Protocol: Investigations of 5a reductase inhibition were carried out on cells of the human prostate-cancer cell-line DU145. The cells (250,000) were disseminated in 5 ml of RPMI 1640 medium with 10% foetal calf serum (FCS) in 6-well cell-culture dishes and incubated at 37° C. in an incubator. After four days, the medium against RPMI 1640 was replaced, with the addition of 10% charcoal-stripped FCS. On the following day, the test substances and ^14C testosterone were applied and another 18 hours later, supernatant of the cells were removed. The supernatant of the cells were mixed with 2.5 ml ethyl acetate and then centrifuged for 10 mins with 500 g at room temperature. The organic phase was removed and transferred over to a small glass tube. Extraction was then repeated by again applying 2.5 ml ethyl acetate. The combined organic phases were evaporated down at 37° C. under N2 fumigation until dry; the residue was taken into 50 μl ethyl acetate and then separated out twice on a silica-gel 60 TLC dish, with ethyl acetate/cyclohexane (1:1) as mobile phase. The testosterone metabolites so formed were localised with the aid of a linear analyser, and inhibition of 5α reductase was obtained at the dihydro-testosterone peak by comparison with the solvent control.

[6] = tested on: Enterococcus durans; experiment: MIC, micro-dilution method; format: cell-based
Protocol: (§3) Anti-microbial effects against various gram-positive bacteria were determined using the micro-dilution method. In the table below, we show the minimum inhibition concentration (MIC) and the minimum bactericide concentration (MBC) in each case.

[7] = tested on: Listeria monocytogenes; experiment: MIC, micro-dilution method; format: cell-based
Protocol: as §3

[8] = tested on: Streptococcus pyogenes; experiment: MIC, micro-dilution method; format: cell-based
Protocol: as §3

[9] = tested on: Staphylococcus aureus (SA); experiment: MIC, micro-dilution method; format: cell-based
Protocol: as §3

[10] = tested on: Enterococcus fæcalis; experiment: MIC, micro-dilution method; format: cell-based
Protocol: as §3

[11] = tested on: Staphylococcus saprophyticus; experiment: MIC, micro-dilution method; format: cell-based
Protocol: as §3

[12] = tested on: Enterococcus fæcium; experiment: MIC, micro-dilution method; format: cell-based
Protocol: as §3

[13] = tested on: Methicillin-resistant SA; format: cell-based, Staphylococcus aureus
Protocol: as §3

[14] = tested on: Herpes simplex 1 strain of virus (HSV-1); experiment: HSV-1 "deactivation test" (virus titre on verocells); format: cell-based; conditions: for virus titre: virus applied 1.5×10^7 TCID50
[15] = tested on: verocells; experiment: Cyto-toxicity on verocells, MTT test; format: cell-based, ape; conditions: 7 days
Protocol: Various concentrations of the extract according to the invention and hypericin were incubated in the incubator for 7 days to assess the cyto-toxic effect of verocells. Determining of cyto-toxicity was performed using an MTT test following a published procedure (Cinatl J. jr; Cinatl, J; Rabenau, H, Gümel, H; Doerr, H. W; (1993); “In-vitro anti-human immuno-deficiency virus activity of 2′, 3 dideoxynucleotides and their effect on clonal growth of hæmopoietic cells from human bone-marrow”, Arzneimittel-Frsch./Drug Res. 43, 622–625).
Assessment of the cyto-toxic concentration (TC50) and the virus-inhibiting concentration (IC50) was performed using linear regression. To calculate the therapeutic index, the formula TC50/IC50 was applied.

[16] = tested on: Herpes simplex 1 strain of virus (HSV-1); experiment: HSV-1 "inhibition test" (virostatic action in verocells); format: cell-based; conditions: Human alphaherpesvirus 1; HSV-1 3000 TCID50/ml, 48–72 hours
[17] = DU-145, 30 μg/ml, DU145 cells, 18 hours, read-out: Inhibition of 5α reductase
[18] = DU-145, read-out: Inhibition of 5α reductase

Row | Compound | inhibition at 10 µg/mL ([1]; 10 μg/ml) [%] | MPO inhibition [2] [%] | inhibition at 30 µg/mL [3, 17] [%] | Oedema inhibition [4] [%] | further results
1 | O=c1cc(-c2ccc(O)c(-c3c(O)cc(O)c4c(=O)cc(-c5ccc(O)cc5)oc34)c2)oc2cc(O)cc(O)c12 [Amento-flavone] | 68 | 70 | -15 | 82 | –
2 | Oc1ccccc1O [Catechol] | – | 41 | -15 | 36 | inhibition at 10 µg/mL [1]: 14%
3 | O=C(/C=C/c1ccc(O)c(O)c1)O[C@@H]1C[C@](O)(C(=O)O)C[C@@H](O)[C@H]1O [Chlorogenic acid] | -9 | 16 | 3 | 14 | –
4 | Oc1cc(O)c2c(c1)O[C@H](c1ccc(O)c(O)c1)[C@H](O)C2 [Epicatechol] | 13 | 45 | -6 | 1 | –
5 | CC(C)=CCC[C@]1(C)[C@@H](CC=C(C)C)C[C@@]2(CC=C(C)C)C(=O)[C@]1(C(=O)C(C)C)C(=O)C(CC=C(C)C)=C2O [Hyperforin] | – | 62 | – | 65 | cyto-toxicity [5]: cyto-toxic; MIC [6]: 125 µg/mL (≈ 233 µM); MIC [7]: 15.6 to 31.25 µg/mL; MIC [8]: 15.6 µg/mL (≈ 29.1 µM); MIC [9]: 62.5 µg/mL (≈ 116 µM); MIC [10]: 125 µg/mL (≈ 233 µM); MIC [11]: 62.5 to 125 µg/mL; MIC [12]: 125 to 250 µg/mL; MIC [13]: 31.25 µg/mL (≈ 58.2 µM)
6 | Cc1cc(O)c2c(=O)c3c(O)cc(O)c4c5c(O)cc(O)c6c(=O)c7c(O)cc(C)c8c1c2c(c34)c(c78)c65 [Hypericin] | 100 | 48 | – | 6 | virus titre ([14]; 10 μg/ml): 4.7 × 10^6 TCID50; virus-deactivating action ([14]; 100 μg/ml): approx. 4 log10 stages; virus titre ([14]; 100 μg/ml): 4.7 × 10^3 TCID50; inhibition at 30 µg/mL [3, 18]: -24%; TC50 [15]: 74.3 µg/mL (≈ 147 µM); IC50 [16]: 2.2 µg/mL (≈ 4.36 µM)
7 | O=c1c(O[C@@H]2O[C@H](CO)[C@H](O)[C@H](O)[C@H]2O)c(-c2ccc(O)c(O)c2)oc2cc(O)cc(O)c12 [Hyperoside] | -8 | 39 | -1 | −27 | –
8 | O=c1c(O[C@@H]2O[C@H](CO)[C@@H](O)[C@H](O)[C@H]2O)c(-c2ccc(O)c(O)c2)oc2cc(O)cc(O)c12 [Isoquercitrin] | 83 | 73 | -5 | −29 | –
9 | O=c1cc(-c2ccc(O)c(O)c2)oc2cc(O)cc(O)c12 [Luteolin] | 92 | 91 | 42 | 70 | –
10 | O=c1c(O)c(-c2cc(O)c(O)c(O)c2)oc2cc(O)cc(O)c12 [Myricetin] | 26 | 75 | 29 | 17 | –
11 | O=c1c(O)c(-c2ccc(O)c(O)c2)oc2cc(O)cc(O)c12 [Quercetin] | -29 | 97 | 46 | 82 | –
12 | C[C@@H]1O[C@@H](Oc2c(-c3ccc(O)c(O)c3)oc3cc(O)cc(O)c3c2=O)[C@H](O)[C@H](O)[C@H]1O [Quercitrin] | – | 23 | – | −26 | inhibition at 10 µg/mL [1]: 35%; inhibition at 30 µg/mL [3, 18]: -29%
13 | C[C@@H]1O[C@@H](OC[C@H]2O[C@@H](Oc3c(-c4ccc(O)c(O)c4)oc4cc(O)cc(O)c4c3=O)[C@H](O)[C@@H](O)[C@@H]2O)[C@H](O)[C@H](O)[C@H]1O [Rutin] | 9 | 55 | -6 | 38 | –
14 | Camphor oil | – | 96 | – | 91 | Inhibition (proliferation of HaCaT cells) ([1]; 10 μg/ml): 44%; Inhibition of 5α reductase ([3]; 30 μg/ml, DU145 cells, 18 hours): 12%
15 | Hyperforin Na | – | – | – | – | Inhibition (proliferation of HaCaT cells) ([1]; 10 μg/ml): 97%; Inhibition of 5α reductase ([3]; 5 μg/ml, DU145 cells, 18 hours): 10%
